For data set [1] the following is noted: 2 mg/kg, cited from earlier work.
In data set [2] the target is μ-opiod receptor (Homo sapiens, UniProt P35372). As to conditions: relative to morphine; cited from earlier work.
For data set [3] the following is noted: cited from earlier work.
For data set [4] the following is noted: cited from earlier work. This is another data set of the same source.
Data set [5] concerns 1,7-DMX-Ab. The experiment in a line: Competitive antigen ELISA, antibody specificity of 1,7-DMX-Ab. The data set is classed as binding, rabbit. Particulars: ideal antibody specificity result hypothesized; 0 = no inhibition or no higher than 40% at 5×10^−3 M. How it is done:
(§1) BSA, antibodies, Tween™ 20 and horse radish peroxidase are added to buffers and water just prior to use. Urine samples are usually collected four hours after drinking a cup of coffee (instant or brewed with approximately 100 mg of caffeine per cup) and stored at −20° C. as 1-mL aliquots in 1.5-mL microtubes. For the ELISA, the urine samples are diluted with isotonic sodium phosphate buffer, pH 7.5 (310 mosM) to give concentrations of caffeine, 1.7-DMX and 1,7-DMU no higher than 3×10^−6 M in the microtiter plate wells. Wells of the ELISA plate are washed with a Nunc-Immuno wash 12 washer. Sixteen milliliters of a solution of 6.6 μg ml^−1 of isolated IgG antibodies is prepared in a 100 mM sodium carbonate buffer, pH 9.6, and 150 μL of this solution is pipetted in each well of a microtiter plate using a eight channel pipet (Brinkmann Transferpette™-8 50-200 μL) and 200 μL Flex tips from Brinkmann). After coating the wells with antibodies at 4° C. for 20 hours, the wells are washed 3 times with the isotonic sodium phosphate buffer containing 0.05% Tween™ 20 (IPBT) and properly drained by inverting the plate and absorbing the liquid on to a piece of paper towel. Thirty milliliters of a solution of a IPBT solution containing 1% BSA is prepared and 150 μL of this solution is pipetted in each well using a eight channel pipet (Brinkmann Transferpette ™-8 50-200 μL) and 200 μL yellow tips (Sarstedt yellow tips for P200 Gilson Pipetman). After 3 hours at room temperature, the wells are washed 3 times with IPBT solution and drained. Samples of 400 μL for determination of caffeine, 1,7-DMX and 1,7-DMU are prepared in 1.5-mL microtubes using Sarstedt yellow tips and a P200 Gilson Pipetman. Then, 200 μL of each sample are pipetted in duplicate in a Falcon 96-well microtest tissue culture plate according to the pattern shown in FIG. 22, using Sarstedt yellow tips and a P200 Gilson Pipetman. Using an eight channel pipet (Brinkmann Transferpette™-8 50-200 μL) and changing the tips of the eight channel pipet (200μL Flex tips from Brinkmann) at each row, 150 μL of samples are transferred in the corresponding wells of a 96-well ELISA microtiter plate coated with antibodies. After the addition of the samples, the microtiter plates are covered and left standing at room temperature for 2 h. While the plate is left standing the substrate buffer without the hydrogen peroxide and o-phenylenediamine hydrochloride is prepared (25 mM citric acid and 50 mM sodium phosphate dibasic buffer, pH 5.0). The microtiter plate is washed 3 times with the IPBT solution and 3 times with a 0.05% Tween™ 20 solution and drained. Then, 50 μL of hydrogen peroxide and 40 mg of o-phenylenediamine are added to the substrate buffer. One hundred fifty microliters (150 μL) of the substrate buffer solution is then added to each well using a eight channel pipet (Brinkmann Transferpette™-8 50-200 μL) and 200 μL Flex tips (Brinkmann). The microtiter plate is covered and shaken for 25-30 min at room temperature and the enzymatic reaction is stopped by adding 50 μL/well of a 2.5 N HCl solution using an eight channel pipet (Brinkmann Transferpette™-8 50-200 μL) and 200L Flex tips (Brinkmann).
On the technique in general: In an ELISA, binding on a coated surface is turned into a signal by an enzyme label.

Data set [6] deals with AAMU-Ab. The experiment in a line: Competitive antigen ELISA, cross-reactivity of AAMU-Ab. As to conditions: for % Cross-Reaction AAMU-Ab: 0 = absence of inhibition or inhibition no higher than 40% at the highest concentration tested (5×10^−3 M). The data set is classed as binding, rabbit. How it is done:
(§2) Buffers and water without additives are filtered through millipore filters and kept for 1 week. BSA, antibodies, Tween™ 20 and horse radish peroxidase conjugates are added to these buffers and water just prior to use. Urine samples are usually collected 4 hours after drinking a cup of coffee (instant or brewed with approximately 100 mg of caffeine per cup) and stored at −80° C. The urine samples are diluted 10 times with sodium phosphate buffer (620 mosm, pH 7.50) and are subsequently diluted with water to give concentrations of AAMU and 1X no higher than 3×10^−6 M in the ELISA. All the pipettings are done with an eight-channel pipette, except those of the antibody and sample solutions. Starting with the last well, 100 μL of a carbonate buffer (100 mM, pH 9.6) containing 2.5 μg mL-1 antibodies are added to each well. After 90 min. at room temperature, the wells are washed three times with […] of TPB: isotonic sodium phosphate buffer (310 mosm, pH 7.50) containing 0.05% Tween™ 20.
(§3) After the initial wash, unoccupied sites are blocked by incubation for 90 min. at room temperature with 100 μL TBP containing 3% BSA. The wells are washed four times with 100 μL TPB. […] The microplate is gently shaken with an orbital shaker at room temperature for 3-4 hours. The wells are washed three times with 100 μL TPB containing 1% BSA and three times with water containing 0.05% Tween ™ 20. To the washed plate is added 150 μL of a substrate buffer composed of citric acid (25 mM) and sodium phosphate dibasic buffer (50 mM, pH 5.0) containing 0.06% hydrogen peroxide and 0.04% o-phenylenediamine hydrochloride.
(§4) Buffers and water without additives were filtered through millipore filters and kept for 1 week. BSA, antibodies, Tween ™ 20 and horse radish peroxidase conjugates were added to these buffers and water just prior to use. Urine samples were usually collected 4 hours after drinking a cup of coffee (instant or brewed with approximately 100 mg of caffeine per cup) and stored at 80° C. They were diluted 10 times with sodium phosphate buffer (620 mosm, pH 7.50) and were subsequently diluted with water to give concentrations of AAMU and 1X no higher than 3×10^−6 M in the ELISA. All the pipettings were done with an eight-channel pipette, except those of the antibody and sample solutions. Starting with the last well, 100 μL of a carbonate buffer (100 mM, pH 9.6) containing 2.5 μg mL^−1 antibodies was pipetted. After 90 min. at room temperature, the wells were washed three times with 100 μL of TPB: isotonic sodium phosphate buffer (310 mosm, pH 7.50) containing 0.05% Tween™ 20.
(§5) After the initial wash, unoccupied sites were blocked by incubation for 90 min. at room temperature with 100 μL TBP containing 3% BSA. The wells were washed four times with 100 μL TPB. […] The microplate was gently shaken with an orbital shaker at room temperature for 3-4 hours. The wells were washed three times with 100 μL with TPB containing 1% BSA and three times with water containing 0.05% Tween™ 20. To the washed plate was added 150 μL of a substrate buffer composed of citric acid (25 mM) and sodium phosphate dibasic buffer (50 mM, pH 5.0) containing 0.06% hydrogen peroxide and 0.04% o-phenylenediamine hydrochloride. After 20 min. at room temperature with shaking, the reaction was stopped with 50 μL of 2.5 N HCl.
(§6) The cross reactivities of AAMU-Ab and 1X-Ab were tested using a wide variety of caffeine metabolites and structural analogs (Table 5 below).

The subject of data set [7] is Caffeine-Ab. The experiment in a line: Competitive antigen ELISA, antibody specificity of caffeine-Ab. Particulars: ideal antibody specificity result hypothesized; 0 = no inhibition or no higher than 40% at 5×10^−3 M. Format: binding, rabbit. How it is done:
as §1

Data set [8] concerns 1X-Ab. The experiment in a line: Competitive antigen ELISA, cross-reactivity of 1X-Ab. Format: binding, rabbit. Particulars: 0 = absence of inhibition or inhibition no higher than 40% at the highest concentration tested (5×10^−3 M). How it is done:
as §2, §3, §4, §5, §6

For data set [9], the system named is 1,7-DMU-Ab. The experiment in a line: Competitive antigen ELISA, antibody specificity of 1,7-DMU-Ab. Format: binding, rabbit. Particulars: ideal antibody specificity result hypothesized; 0 = no inhibition or no higher than 40% at 5×10^−3 M. How it is done: as §1
For data set [10] the following is noted: cited from earlier work. The source holds these as a separate data set.

SMILES strings stand for the structures. Where two headings read alike, the source gives them in different places. Marks after values point to notes of the source that are not given here.

Chain of μ-opiod receptor (P35372 whole entry): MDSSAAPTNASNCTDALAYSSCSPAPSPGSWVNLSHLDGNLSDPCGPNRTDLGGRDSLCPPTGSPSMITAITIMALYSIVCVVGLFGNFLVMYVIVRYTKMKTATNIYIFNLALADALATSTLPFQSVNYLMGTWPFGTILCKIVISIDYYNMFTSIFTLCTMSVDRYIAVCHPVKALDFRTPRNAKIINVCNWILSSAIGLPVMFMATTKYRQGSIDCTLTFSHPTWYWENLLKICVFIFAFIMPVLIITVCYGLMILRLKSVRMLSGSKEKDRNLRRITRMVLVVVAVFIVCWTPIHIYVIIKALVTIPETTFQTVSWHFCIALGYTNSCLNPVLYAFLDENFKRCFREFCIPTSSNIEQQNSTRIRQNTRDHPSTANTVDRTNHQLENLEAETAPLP

For `COc1cccc(C2(O)CCCCC2CN(C)C)c1` (centres unmarked) [Tramadol], in data set [1] (extensive metabolizers), the “side effects vs placebo” value was “caused side effects significantly more frequently than placebo”. Moreover, in [1] (extensive vs poor metabolizers), the analgesic effect entry was “better analgesic in extensive metabolizers as compared to poor metabolizers”. In [2], the “affinity for the μ-opiod receptor, factor weaker than morphine” value is reported as roughly 6000.

Take `COc1ccc2c(c1)[C@]13CCCC[C@@H]1[C@H](C2)N(C)CC3` [Dextromethorphan]: the “mean performance +/−SE” value is on record as 95+/−0.5% in data set [3] (extensive metabolizers (EMs)) and 86+/−6% in data set [3] (poor metabolizers (PMs), p<0.05).

For `Nc1ccc(S(=O)(=O)c2ccc(N)cc2)cc1` [dapsone], the “adverse reactions to dapsone” value in data set [4] (fast acetylators) was 17%; in [4] (slow acetylators), 46%.

Turning to `CC(=O)Nc1c(N)n(C)c(=O)[nH]c1=O` [5-Acetamino-6-amino-1-methyluracil], in data set [5], the “% Cross-reaction 1,7-DMX-Ab” value was determined as 0%. The “% Cross-Reaction AAMU-Ab” value in [6] is 100%. The IC50 in [6] (read-out: concentration required for 50% inhibition in the competitive antigen ELISA, AAMU-Ab) was 1500 nM. Further, the “% Cross-reaction Caffeine-Ab” value in data set [7] was determined as 0%. In addition, the “% Cross-Reaction 1X-Ab” value in [8] was 0%. Moreover, in data set [9], the “% Cross-reaction 1,7-DMU-Ab” value turned out to be 0%.

With `Cn1cnc2c1c(=O)[nH]c(=O)n2C` [3,7-Dimethyl Xanthine (Theobromine), 3,7-Dimethyl Xanthine], the “% Cross-reaction 1,7-DMX-Ab” value in [5] was determined as 0%. In addition, the “% Cross-Reaction AAMU-Ab” value in [6] was determined as 0%. For the same molecule, the “% Cross-reaction Caffeine-Ab” value in data set [7] turned out to be 0%. Besides, the “% Cross-Reaction 1X-Ab” value in data set [8] turned out to be 0%. In [9], the “% Cross-reaction 1,7-DMU-Ab” value is 0%.

Take `Cn1cnc2[nH]c(=O)[nH]c(=O)c21` [7-Methyl Xanthine]: in data set [5], the “% Cross-reaction 1,7-DMX-Ab” value stood at 0%. Also, the “% Cross-Reaction AAMU-Ab” value in [6] came out at 0%. For the same molecule, the “% Cross-reaction Caffeine-Ab” value in data set [7] was 0%. Also, in data set [8], the “% Cross-Reaction 1X-Ab” value is 0%. The “% Cross-reaction 1,7-DMU-Ab” value in [9] worked out at 0%.

In the case of `Cn1c(=O)[nH]c(=O)c2[nH]cnc21` [3-Methyl Xanthine], in [5], the “% Cross-reaction 1,7-DMX-Ab” value was found to be 0%. In addition, in [6], the “% Cross-Reaction AAMU-Ab” value is given as 0%. Further, the “% Cross-reaction Caffeine-Ab” value in data set [7] came to 0%. Moreover, the “% Cross-Reaction 1X-Ab” value in [8] stood at 0%. The “% Cross-reaction 1,7-DMU-Ab” value in [9] is on record as 0%.

On to `O=c1[nH]c(=O)c2[nH]cnc2[nH]1` [Xanthine], for which, in data set [5], the “% Cross-reaction 1,7-DMX-Ab” value is 0%. The “% Cross-Reaction AAMU-Ab” value in data set [6] was 0^a %. Also, the “% Cross-reaction Caffeine-Ab” value in [7] turned out to be 0%. Further, in data set [8], the “% Cross-Reaction 1X-Ab” value was 0%. Besides, in data set [9], the “% Cross-reaction 1,7-DMU-Ab” value worked out at 0%.

`CN(C)CCN1C(=O)c2cccc3cc(N)cc(c23)C1=O` [Amonafide]: the deaths result in [10] (300 mg/m^2, extremely fast acetylators) is listed as “two women (both oriental) died from severe myelosuppression”. In addition, the response rate in data set [10] (individuals considered to be properly dosed) was 30-50%. Besides, the overall response rate in [10] (phase II trial, standard 300 mg/m^2 dose for all individuals) is on record as 18%.

For `O=c1[nH]c(=O)c2[nH]c(=O)[nH]c2[nH]1` [Uric acid], the “% Cross-reaction 1,7-DMX-Ab” value in [5] was found to be 0%. In [6], the “% Cross-Reaction AAMU-Ab” value came out at 0%. For the same molecule, the “% Cross-reaction Caffeine-Ab” value in [7] worked out at 0%. Also, in data set [8], the “% Cross-Reaction 1X-Ab” value stood at 0%. In [9], the “% Cross-reaction 1,7-DMU-Ab” value came to 0%.

Source of the values: patent US20030091975A1, “Multiple determinants for metabolic phenotypes” (priority 2001, published 2003).
